In patent publication US20230286983A1 (4E Therapeutics, Inc., priority 2020, published 2023):
Values joined by “and” are separate entries in the source; they are usually repeats but may differ in a detail not shown here. Equal values may be shown once. Read-outs that look alike come from different tables or passages of the source.

Tests used:
p-eIF4E = experiment: Western blot of eIF4E and p-eIF4E in tissues, 4ET-03-009; format: in vivo, mice; conditions: 10 mg/kg oral, 2 hours after dosing, vs vehicle
Experimental: In separate mice administered the same therapy, 2 hours after dosing tissues were harvested from the sciatic nerve, liver, brain, and DRG and homogenized, then subjected to Western blot analysis for eIF4E and p-eIF4E. Control mice administered only the solvent vehicle with no MNK inhibitor were also assayed. Amounts of p-eIF4E in each tissue based on the mean for all three mice administered the therapeutic and based on the mean for all three control mice are presented in FIG. 2, right panel. […] Units on the y-axis are % of signal standardized to the control.

[1] = molecular target: Cdc2-like kinase 4 (CLK4) (Homo sapiens, UniProt Q9HAZ1); experiment: Off-target kinase screen CLK4; format: biochemical; conditions: 1 μM test compound
From the text: (§1) These kinases were chosen because they are the only known off-target hit kinases for eFT508. These assays were done using recombinant human kinases (CLK4, DRAK1 and PKG2) in a substrate phosphorylation assay. % activity remaining after MNK inhibitor treatment is indicated in Table 12.

[2] = molecular target: T1, death-associated protein kinase-related apoptosis-inducing protein kinase 1 (DRAK1) (Homo sapiens, UniProt Q9UEE5); experiment: Off-target kinase screen DRAK1; format: biochemical; conditions: 1 μM test compound
T1 sequence (Q9UEE5 1-414): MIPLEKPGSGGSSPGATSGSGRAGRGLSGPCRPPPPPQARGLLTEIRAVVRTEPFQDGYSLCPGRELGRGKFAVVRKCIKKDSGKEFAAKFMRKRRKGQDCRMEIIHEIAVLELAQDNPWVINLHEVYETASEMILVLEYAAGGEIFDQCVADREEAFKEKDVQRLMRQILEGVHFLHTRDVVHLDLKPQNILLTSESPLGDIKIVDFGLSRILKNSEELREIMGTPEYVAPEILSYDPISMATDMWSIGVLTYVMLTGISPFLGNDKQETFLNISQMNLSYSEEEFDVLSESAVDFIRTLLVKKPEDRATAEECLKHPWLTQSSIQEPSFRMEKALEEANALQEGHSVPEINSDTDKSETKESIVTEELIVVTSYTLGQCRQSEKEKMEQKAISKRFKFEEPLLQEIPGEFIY
From the text: as §1

[3] = Pharmacokinetic study, 4ET-03-009 at 20 mg/kg oral; format: in vivo, CD-1 male mice; conditions: for AUCinf/D / Cmax/D: dose normalized; for concentration at 0.083 hours / concentration at 0.25 hours / concentration at 0.5 hours / concentration at 1 hours / concentration at 2 hours / concentration at 4 hours / concentration at 6 hours / concentration at 8 hours / concentration at 24 hours: oral
Experimental: Compound 4ET-03-009 was dissolved in a 10% dimethylacetamide (DMA)/3000 polyethylene glycol (PEG) 300/400% propylene glycol (PG)/200% water solvent. […] Plasma was collected at indicated timepoints and plasma concentration of compound 4ET-03-009 was measured using liquid chromatography-mass spectrometry/mass spectrometry (LC-MS/MS). Results are presented in FIG. 1 and Tables 3, 4, and 5.
Compound 4ET-03-009 was dissolved in a 10% dimethylacetamide (DMA)/30% polyethylene glycol (PEG) 300/40% propylene glycol (PG)/20% water solvent. Dosing and assay were performed as described in Biological Example 2. Results are presented in FIG. 3 and Tables 7, 8, and 9, below.

[4] = male, CD-1, mouse, plasma, po, 20 mg/kg, Mean (n = 3)
[5] = male, CD-1, mouse, plasma, po, 20 mg/kg, individual animals

Chain of Cdc2-like kinase 4 (CLK4) (Q9HAZ1 whole entry): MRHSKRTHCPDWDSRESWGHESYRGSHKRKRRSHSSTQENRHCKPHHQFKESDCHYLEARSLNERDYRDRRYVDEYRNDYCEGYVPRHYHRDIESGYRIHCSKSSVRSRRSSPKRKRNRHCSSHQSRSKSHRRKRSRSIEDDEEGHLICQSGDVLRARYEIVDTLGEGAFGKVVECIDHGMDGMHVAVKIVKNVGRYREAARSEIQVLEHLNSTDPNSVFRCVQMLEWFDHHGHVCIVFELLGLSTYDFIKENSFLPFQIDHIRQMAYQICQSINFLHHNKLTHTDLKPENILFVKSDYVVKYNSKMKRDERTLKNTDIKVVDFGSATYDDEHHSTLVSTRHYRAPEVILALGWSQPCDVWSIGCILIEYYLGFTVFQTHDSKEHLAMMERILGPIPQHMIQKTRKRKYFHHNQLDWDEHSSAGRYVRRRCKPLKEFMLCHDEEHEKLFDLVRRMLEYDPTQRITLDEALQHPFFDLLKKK

Cc1cc(Nc2cc(NC(=O)C3CC3)ncn2)c(=O)n2c1C(=O)NC21CCOCC1 [Compound 4ET-03-009, N-(6-((8-Methyl-1,5-dioxo-1,2′,3′,5,5′,6′-hexahydro-2H-spiro[imidazo[1,5-a]pyridine-3,4′-pyran]-6-yl)amino)pyrimidin-4-yl)cyclopropanecarboxamide]
p-eIF4E in sciatic nerve, liver, brain and DRG (p-eIF4E): significantly decreased peIF4E in all tissues assayed
remaining activity at 1 µM [1]: 54%
remaining activity at 1 µM [2]: 16%
abnormal clinical symptoms during the study [3]: No abnormal clinical symptoms were observed
Plasma Conc. (per mouse n = 3) ([3]; 0.083 hours): 384 ng/mL and 304 ng/mL
Plasma Conc. (per mouse n = 3) ([3]; 0.25 hours): 529 ng/mL and 396 ng/mL
Plasma Conc. (per mouse n = 3) ([3]; 0.5 hours): 607 ng/mL and 497 ng/mL
Plasma Conc. (per mouse n = 3) ([3]; 1 hours): 561 ng/mL and 448 ng/mL
Plasma Conc. (per mouse n = 3) ([3]; 2 hours): 372 ng/mL and 286 ng/mL
Plasma Conc. (per mouse n = 3) ([3]; 4 hours): 144 ng/mL and 135 ng/mL
Plasma Conc. (per mouse n = 3) ([3]; 6 hours): 71.3 ng/mL and 58.7 ng/mL
Plasma Conc. (per mouse n = 3) ([3]; 8 hours): 51.4 ng/mL and 41.5 ng/mL
Plasma Conc. (per mouse n = 3) ([3]; 24 hours): 2.01 ng/mL and 1.89 ng/mL
Tlast ([3]; Mean (n = 3)): 24.0 h
t1/2 ([3]; Mean (n = 3)): 3.55 h
AUCinf/D ([3]; Mean (n = 3)): 113 kg·h/kL
Cmax/D ([3]; Mean (n = 3)): 29.5 kg/kL
AUC0-8 hours ([3]; individual animals): 1847 ng·h/mL and 1501 ng·h/mL
AUCinf ([3]; individual animals): 2284 ng·h/mL and 1858 ng·h/mL
AUClast ([3]; individual animals): 2274 ng·h/mL and 1848 ng·h/mL
Clast ([3]; individual animals): 2.01 ng/mL and 1.89 ng/mL
Cmax ([3]; individual animals): 607 ng/mL and 497 ng/mL
MRTinf ([3]; individual animals): 3.53 h
Tlast ([3]; individual animals): 24.0 h
t1/2 ([3]; individual animals): 3.47 h and 3.61 h
AUCinf/D ([3]; individual animals): 131 kg·h/kL and 114 kg·h/kL and 92.9 kg·h/kL
Cmax/D ([3]; individual animals): 33.3 kg/kL and 30.4 kg/kL and 24.9 kg/kL
Tmax ([3]; male, CD-1, mouse, plasma, individual animals): 0.5 h
concentration at 0.083 hours ([3]; male, CD-1, mouse, plasma, 20 mg/kg, 0.083 hours, mean n = 3, read-out: Plasma Conc. Mean): 331 ng/mL
concentration at 0.083 hours ([3]; male, CD-1, mouse, plasma, 20 mg/kg, 0.083 hours, read-out: Plasma Conc. (per mouse n = 3)): 304 ng/mL
concentration at 0.25 hours ([3]; male, CD-1, mouse, plasma, 20 mg/kg, 0.25 hours, mean n = 3, read-out: Plasma Conc. Mean): 530 ng/mL
concentration at 0.25 hours ([3]; male, CD-1, mouse, plasma, 20 mg/kg, 0.25 hours, read-out: Plasma Conc. (per mouse n = 3)): 665 ng/mL
concentration at 0.5 hours ([3]; male, CD-1, mouse, plasma, 20 mg/kg, 0.5 hours, mean n = 3, read-out: Plasma Conc. Mean): 590 ng/mL
concentration at 0.5 hours ([3]; male, CD-1, mouse, plasma, 20 mg/kg, 0.5 hours, read-out: Plasma Conc. (per mouse n = 3)): 666 ng/mL
concentration at 1 hours ([3]; male, CD-1, mouse, plasma, 20 mg/kg, 1 hours, mean n = 3, read-out: Plasma Conc. Mean): 553 ng/mL
concentration at 1 hours ([3]; male, CD-1, mouse, plasma, 20 mg/kg, 1 hours, read-out: Plasma Conc. (per mouse n = 3)): 649 ng/mL
concentration at 2 hours ([3]; male, CD-1, mouse, plasma, 20 mg/kg, 2 hours, mean n = 3, read-out: Plasma Conc. Mean): 355 ng/mL
concentration at 2 hours ([3]; male, CD-1, mouse, plasma, 20 mg/kg, 2 hours, read-out: Plasma Conc. (per mouse n = 3)): 408 ng/mL
concentration at 4 hours ([3]; male, CD-1, mouse, plasma, 20 mg/kg, 4 hours, mean n = 3, read-out: Plasma Conc. Mean): 153 ng/mL
concentration at 4 hours ([3]; male, CD-1, mouse, plasma, 20 mg/kg, 4 hours, read-out: Plasma Conc. (per mouse n = 3)): 180 ng/mL
concentration at 6 hours ([3]; male, CD-1, mouse, plasma, 20 mg/kg, 6 hours, mean n = 3, read-out: Plasma Conc. Mean): 74.5 ng/mL
concentration at 6 hours ([3]; male, CD-1, mouse, plasma, 20 mg/kg, 6 hours, read-out: Plasma Conc. (per mouse n = 3)): 93.6 ng/mL
concentration at 8 hours ([3]; male, CD-1, mouse, plasma, 20 mg/kg, 8 hours, mean n = 3, read-out: Plasma Conc. Mean): 50.2 ng/mL
concentration at 8 hours ([3]; male, CD-1, mouse, plasma, 20 mg/kg, 8 hours, read-out: Plasma Conc. (per mouse n = 3)): 57.6 ng/mL
concentration at 24 hours ([3]; male, CD-1, mouse, plasma, 20 mg/kg, 24 hours, mean n = 3, read-out: Plasma Conc. Mean): 2.22 ng/mL
concentration at 24 hours ([3]; male, CD-1, mouse, plasma, 20 mg/kg, 24 hours, read-out: Plasma Conc. (per mouse n = 3)): 2.75 ng/mL
concentration at 24 hours ([3]; male, CD-1, mouse, plasma, 20 mg/kg, Mean (n = 3), read-out: Clast): 2.22 ng/mL
concentration at 24 hours ([3]; male, CD-1, mouse, plasma, 20 mg/kg, individual animals, read-out: Clast): 2.75 ng/mL
AUC(0-inf) [3, 4]: 2260 ng·h/mL
MRT inf [3, 4]: 3.59 h
half-life [3, 4]: 3.6 h
AUC(0-t) ([3]; male, CD-1, mouse, plasma, po, 20 mg/kg, Mean (n = 3), read-out: AUC0-8 hours): 1830 ng·h/mL
AUC(0-t) ([3]; male, CD-1, mouse, plasma, po, 20 mg/kg, Mean (n = 3), read-out: AUClast): 2240 ng·h/mL
Cmax ([3]; male, CD-1, mouse, plasma, po, 20 mg/kg, Mean (n = 3), read-out: Cmax): 590 ng/mL
AUC(0-inf) ([3]; male, CD-1, mouse, plasma, po, 20 mg/kg, for the study): 2260 ng·h/mL
Cmax ([3]; male, CD-1, mouse, plasma, po, 20 mg/kg, for the study, read-out: Cmax): 1400 nM
AUC(0-inf) [3, 5]: 2630 ng·h/mL
MRT inf [3, 5]: 3.63 h
half-life [3, 5]: 3.58 h
AUC(0-t) ([3]; male, CD-1, mouse, plasma, po, 20 mg/kg, individual animals, read-out: AUC0-8 hours): 2130 ng·h/mL
AUC(0-t) ([3]; male, CD-1, mouse, plasma, po, 20 mg/kg, individual animals, read-out: AUClast): 2610 ng·h/mL
Cmax ([3]; male, CD-1, mouse, plasma, po, 20 mg/kg, individual animals, read-out: Cmax): 666 ng/mL
